In paper PMC9297976 (Journal of Applied Toxicology, 2021):

Assays:
medaka Esr1 (mEsr1) [1] = biological target: T1, medaka Esr1 (mEsr1) (Oryzias latipes, UniProt P50241); test: cell-based; set-up: species or system Japanese medaka (Oryzias latipes)
T1 sequence (P50241 1-620): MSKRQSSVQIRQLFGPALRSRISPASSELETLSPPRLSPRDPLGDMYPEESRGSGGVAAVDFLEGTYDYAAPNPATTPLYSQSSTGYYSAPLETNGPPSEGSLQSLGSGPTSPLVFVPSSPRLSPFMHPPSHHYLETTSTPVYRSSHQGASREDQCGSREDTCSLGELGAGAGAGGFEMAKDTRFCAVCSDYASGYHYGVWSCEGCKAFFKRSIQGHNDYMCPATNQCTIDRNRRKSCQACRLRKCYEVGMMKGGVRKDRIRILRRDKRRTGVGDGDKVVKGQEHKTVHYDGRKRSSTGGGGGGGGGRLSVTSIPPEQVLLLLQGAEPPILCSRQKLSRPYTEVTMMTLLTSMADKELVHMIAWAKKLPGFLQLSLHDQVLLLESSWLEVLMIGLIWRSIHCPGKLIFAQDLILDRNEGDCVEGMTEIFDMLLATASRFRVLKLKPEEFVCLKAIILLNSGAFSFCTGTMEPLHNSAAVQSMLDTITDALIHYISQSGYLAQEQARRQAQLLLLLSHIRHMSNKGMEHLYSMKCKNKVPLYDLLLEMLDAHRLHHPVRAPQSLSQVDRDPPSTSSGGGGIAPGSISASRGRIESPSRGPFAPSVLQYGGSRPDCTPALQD

medaka Esr1 (mEsr1) [2] = biological target: T1, medaka Esr1 (mEsr1); test: Medaka Esr1 reporter gene assay, antagonist assay; assay type: cell-based, Japanese medaka (Oryzias latipes); conditions: E2 spiked at 0.2 nM (A); MAC = 1.0 × 10^−5 M
medaka ARβ (mArβ) [3] = biological target: T2, medaka ARβ (mArβ) (Oryzias latipes, UniProt D1MV73); test: Medaka ARβ reporter gene assay, agonist assay; assay type: cell-based, Japanese medaka (Oryzias latipes); conditions: MAC = 1.0 × 10^−5 M
T2 sequence (D1MV73 1-744): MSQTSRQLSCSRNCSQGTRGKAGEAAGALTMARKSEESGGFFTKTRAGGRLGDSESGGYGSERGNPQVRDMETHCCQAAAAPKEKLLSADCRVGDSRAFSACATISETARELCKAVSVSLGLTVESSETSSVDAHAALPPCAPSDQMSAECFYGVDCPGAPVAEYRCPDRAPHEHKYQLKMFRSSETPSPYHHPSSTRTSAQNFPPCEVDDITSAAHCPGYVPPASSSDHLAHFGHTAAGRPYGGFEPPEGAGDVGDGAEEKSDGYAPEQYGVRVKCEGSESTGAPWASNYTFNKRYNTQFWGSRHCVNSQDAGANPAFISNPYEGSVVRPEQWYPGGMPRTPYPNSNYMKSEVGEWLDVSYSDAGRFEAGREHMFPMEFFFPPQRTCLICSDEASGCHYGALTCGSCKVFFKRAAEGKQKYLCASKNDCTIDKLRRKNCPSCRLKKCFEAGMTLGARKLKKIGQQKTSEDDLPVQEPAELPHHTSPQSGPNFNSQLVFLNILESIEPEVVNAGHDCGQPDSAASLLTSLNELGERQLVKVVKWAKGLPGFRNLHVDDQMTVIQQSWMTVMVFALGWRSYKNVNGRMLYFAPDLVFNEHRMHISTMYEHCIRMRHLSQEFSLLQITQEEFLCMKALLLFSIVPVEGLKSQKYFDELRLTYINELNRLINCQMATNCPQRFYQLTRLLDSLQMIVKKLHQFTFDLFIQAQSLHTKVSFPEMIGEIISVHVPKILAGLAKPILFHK

medaka ARβ (mArβ) [4] = biological target: T2, medaka ARβ (mArβ); test: Medaka ARβ reporter gene assay, antagonist assay; assay type: cell-based, Japanese medaka (Oryzias latipes); conditions: 11‐KT spiked at 50 nM (D); MAC = 1.0 × 10^−5 M
[5] = system: Japanese medaka (Oryzias latipes); test: Fish Short‐Term Reproduction Assay; assay type: in vivo; conditions: for GSI Female / GSI Male / HSI Female / HSI Male / Length Female / Length Male / Weight Female / Weight Male: completion of exposure
[6] = 2.94 mg/L measured, 21 d, sig. ↑ vs control
[7] = 2.94 mg/L measured, 21 d, sig. ↓ vs control
[8] = measured concentration 0.311 mg/L
[9] = measured concentration 0.926 mg/L
[10] = measured concentration 2.94 mg/L

## CCCOC(=O)c1ccc(O)cc1 [PPB, 4‐Hydroxybenzoate propyl]
Medaka Esr1 (mEsr1) [1]
  EC50: 7 µM
Medaka Esr1 (mEsr1) [1]; mode of action in which EC50 or PC10 was obtained in RGA
  In vitro positive: Esr: Esr
Medaka Esr1 (mEsr1) [2]
  Antagonistic activity: NE (MAC = 1.0 × 10^−5 M)^(A)
Medaka ARβ (mArβ) [3]
  Agonistic activity: NE (MAC = 1.0 × 10^−5 M)
Medaka ARβ (mArβ) [4]
  Antagonistic activity: NE (MAC = 1.0 × 10^−5 M)^(D)
[5]; 0.311 mg/L measured, 21 d
  Fertility rate: 93 ± 3.1%
  Hepatic VTG, female: 1,190 ± 238 ng/mg‐liver
  Mortality: 0.0%
  Mortality, number of dead fish: 0
  Number of fertilized eggs (per female per day): 26 ± 0.8
  Number of total eggs (per female per day): 28 ± 1.6
  SSC female (joint plates with papillary processes): 0 ± 0
[5]; 0.311 mg/L measured, 21 d, sig. ↑ vs control
  Hepatic VTG, male: 23.7 ± 9.0 ng/mg‐liver
[5]; 0.926 mg/L measured, 21 d
  Fertility rate: 94 ± 3.7%
  Hepatic VTG, female: 1,590 ± 271 ng/mg‐liver
  Mortality: 0.0%
  Mortality, number of dead fish: 0
  Number of total eggs (per female per day): 23 ± 2.0
  SSC female (joint plates with papillary processes): 0 ± 0
[5]; 0.926 mg/L measured, 21 d, sig. ↑ vs control
  Hepatic VTG, male: 42.2 ± 36.8 ng/mg‐liver
[5]; 0.926 mg/L measured, 21 d, sig. ↓ vs control
  Number of fertilized eggs (per female per day): 22 ± 1.6
[5]; 2.94 mg/L measured, 21 d
  Mortality: 0.0%
  Mortality, number of dead fish: 0
  SSC female (joint plates with papillary processes): 0 ± 0
[5]; [6]
  Hepatic VTG, female: 3,540 ± 1,080 ng/mg‐liver
  Hepatic VTG, male: 4,170 ± 513 ng/mg‐liver
[5]; [7]
  Fertility rate: 41 ± 23%
  Number of total eggs (per female per day): 10 ± 4.7
[5]; 21 d
  Change of hepatic VTG levels in females (in words): significant increase
  Fecundity, number of total eggs (in words): statistically significant decrease
  LOEC, elevated hepatic VTG in males: 0.311 mg/L
[5]; LOEC on reproduction (fecundity and/or fertility)
  LOECREPRO: 926 µg/L
[5]; Oryzias latipes, 504 h, read-out: LOECmVTG
  minimal effective concentration: 0.311 µg/mL
[5]; concentrations without overt toxicity
  LOECREPRO (reduction in fecundity or fertility): 926 µg/L
[5]; lowest observed effect concentration on mortality
  LOECTOX: ND (>2,940) μg/L
[5]; [8]
  GSI Female: 10.0 ± 0.2%
  GSI Male: 0.74 ± 0.14%
  HSI Female: 5.4 ± 0.75%
  HSI Male: 2.7 ± 0.98%
  Length Female: 36.1 ± 0.2 mm
  Length Male: 36.4 ± 1.3 mm
  Weight Female: 525 ± 27 mg
  Weight Male: 525 ± 13 mg
[5]; [9]
  GSI Female: 9.9 ± 1.1%
  GSI Male: 0.78 ± 0.05%
  HSI Female: 5.1 ± 0.20%
  HSI Male: 2.7 ± 0.23%
  Length Female: 36.8 ± 0.8 mm
  Length Male: 37.1 ± 1.7 mm
  Weight Female: 539 ± 21 mg
  Weight Male: 515 ± 49 mg
[5]; [10]
  GSI Female: 10.0 ± 1.1%
  GSI Male: 0.81 ± 0.21%
  HSI Female: 4.3 ± 0.77%
  HSI Male: 2.3 ± 0.14%
  Length Female: 36.5 ± 1.5 mm
  Length Male: 36.5 ± 0.9 mm
  Weight Female: 549 ± 83 mg
  Weight Male: 490 ± 26 mg
